Data published in patent publication US20240182526A1, “COMPOSITIONS AND METHODS FOR MODULTING INFLAMMATORY AND DEGENERATIVE DISORDER” (University of Southern California, priority 2021, published 2024).
“Also recorded” adds a separate entry of the source.

Columns and labels:
Assay type in all cases: cell-based
[1] = test system: cleaved ACAN and COL2 neoepitopes; test: Neoepitope assay on pig articular cartilage explants stimulated with OSM; conditions: 72 hours, normalized to wet weight
Procedure: Neoepitope analysis. WT and F814 mouse articular cartilage explants were treated with or without OSM (10 ng/mL). Pig articular cartilage explants were stimulated with or without OSM (10 ng/mL) and treated with or without peptide QQpYF (100 μg/mL or 300 μg/mL). For R805 treatment, pig articular cartilage explants were stimulated with or without OSM (10 ng/mL) and treated with or without R805 (0.01, 0.1, 1 or 10 μM). The explants were then digested for 2 hr at 37° C. with 0.01 units chondroitinase ABC (Sigma Aldrich, St. Louis, MO). Samples were then dialyzed with ultrapure water for 24 hr at 4° C., freeze dried, dissolved in RIPA Lysis and Extraction Buffer (Pierce, IL) containing protease inhibitors (Pierce) followed by sonication. Proteins were separated and analyzed by Western blot using primary antibodies against aggrecan (cat #NB100-74350, Novus Biologicals,) and collagen II neoepitopes (cat #50-1035, Ibex). Wet weight of explants was used as loading control.

gp130 and pSRC = test: Co-immunoprecipitation of complex formation between gp130 and pSRC in pig articular chondrocytes; conditions: pig articular chondrocytes with or without OSM, 4 and 24 hours
Procedure: IP Western, SDS-PAGE and Western blot analysis. For transfections of gp130 wild type (WT) (InVivoGen) and gp130 mutant plasmids (Thermo Scientific), cells were plated 24 h prior to transfection to produce monolayers that were 60% confluent and these were transfected by using Turbo DNAfectin 3000 (cat #G3000, Lambda Biotech) according to the manufacturer's protocol. 72h after transfection, cells were maintained in DMEM (10% FBS, 1% PSA) and were either left untreated or were stimulated with IL-6 (10 ng/mL) and/or OSM (10 ng/mL) for 24 h before cell harvest and protein extraction. For immunoprecipitation assays, cell lysates were incubated with Protein G Agarose (cat #20398, Pierce) and anti-Flag antibody (cat #2368, Cell Signaling) at 4° C. overnight. The immune complexes were sedimented, washed and separated by SDS-PAGE (see below) and further analyzed by Western blot using p-SRC (pY416-SRC) (cat #1246F, Novus Biologicals) or NEMO (cat #18474-1-AP, Proteintech) antibodies and normalized to gp130 (cat #bs-1459R, Bioss) or total SRC (cat #2123, Cell Signaling). For R805 treatment, the immune complexes were sedimented, washed and separated by SDS-PAGE and further analyzed by Western blot using OSMR (cat #ab85575, Abcam), LIFR (Santa cat #515337, Cruz Biotechnology) or p-SRC (pY416-SRC) (Novus Biologicals, cat #1246F). Histone H3 (cat #9715, Cell Signaling), gp130 (cat #bs-1459R, Bioss), total SRC (cat #2123, Cell Signaling) or Flag antibody (cat #14739, Cell Signaling) were used as loading controls.
The studies delineate that gp130 Y814 regulates SRC downstream signaling; since SRC is known to associate with gp130, it was hypothesized that gp130 and SRC are capable of physically interacting on Y814 and hindering this interaction will prevent SRC from signaling. In order to impede this interaction, experiments were performed using an innovative peptide library screen with short and overlapping peptides mimicking the motif of gp130 around Y814 that were individually tested for pSRC downregulation; these peptides ranged from 4-15 amino acids. The peptides contained a protein sequence stretch of consecutive amino acids surrounding gp130 Y814 residue. To test their efficacy, pig articular chondrocytes were stimulated with or without OSM in presence or absence of the peptides followed by co-immunoprecipitation to determine interaction and western blot detecting pSRC activity. […] Due to sequence specificity, the peptide is capable of discriminating among other gp130 regions serving as a competitive inhibitor.

YAP1 = test: Western blot of YAP1 in LIF-treated pig articular chondrocytes; conditions: 4 and 24 hours
Procedure: (§1) For standard western blot, treated and non-treated cells were lysed in RIPA Lysis and Extraction Buffer (Pierce, Rockford, IL) containing protease inhibitors (Pierce) followed by sonication with a 15-second pulse at a power output of 2 using the VirSonic 100 (SP Industries Company, Warminster, PA). Protein concentrations were determined by BCA protein assay (Pierce). Proteins were resolved with SDS-PAGE utilizing 4-15% Mini-PROTEAN TGX Precast Gels and transferred to Trans-Blot Turbo Transfer Packs with a 0.2-μm pore-size nitrocellulose membrane. The SDS-PAGE running buffer, 4-15% Mini-PROTEAN TGX Precast Gels, Trans-Blot Turbo Transfer Packs with a 0.2-μm pore-size nitrocellulose membrane was purchased from Biorad (Hercules, CA). Nitrocellulose membranes were blocked in 5% nonfat milk in 0.05% (v/v) Tween 20 (PBST) (Corning, Manassas, VA). […] Quantification of blots was performed using ImageJ 1.44 followed by Prism9 for analysis.
Experiments were performed to determine whether R805 is inclined to shift the signaling outputs downstream of gp130 promoting differential regulation similar to genetic ablation of Y814. As a readout, protein levels of phosphorylated SRC, MAPK (ERK 1/2) and NF-κB were measured in response to OSM while STAT3 and YAP1 levels were evaluated in response to LIF.

gp130 pY814 = molecular target: T1, gp130 pY814 (Sus scrofa, UniProt A0A4X1SIN4); test: Western blot of gp130 pY814 in OSM-stimulated pig articular chondrocytes; conditions: with OSM, 4 and 24 hours
T1 construct: endogenous in cells; host or cells: pig articular chondrocytes (Yucatan minipig)
T1 sequence (A0A4X1SIN4 23-917): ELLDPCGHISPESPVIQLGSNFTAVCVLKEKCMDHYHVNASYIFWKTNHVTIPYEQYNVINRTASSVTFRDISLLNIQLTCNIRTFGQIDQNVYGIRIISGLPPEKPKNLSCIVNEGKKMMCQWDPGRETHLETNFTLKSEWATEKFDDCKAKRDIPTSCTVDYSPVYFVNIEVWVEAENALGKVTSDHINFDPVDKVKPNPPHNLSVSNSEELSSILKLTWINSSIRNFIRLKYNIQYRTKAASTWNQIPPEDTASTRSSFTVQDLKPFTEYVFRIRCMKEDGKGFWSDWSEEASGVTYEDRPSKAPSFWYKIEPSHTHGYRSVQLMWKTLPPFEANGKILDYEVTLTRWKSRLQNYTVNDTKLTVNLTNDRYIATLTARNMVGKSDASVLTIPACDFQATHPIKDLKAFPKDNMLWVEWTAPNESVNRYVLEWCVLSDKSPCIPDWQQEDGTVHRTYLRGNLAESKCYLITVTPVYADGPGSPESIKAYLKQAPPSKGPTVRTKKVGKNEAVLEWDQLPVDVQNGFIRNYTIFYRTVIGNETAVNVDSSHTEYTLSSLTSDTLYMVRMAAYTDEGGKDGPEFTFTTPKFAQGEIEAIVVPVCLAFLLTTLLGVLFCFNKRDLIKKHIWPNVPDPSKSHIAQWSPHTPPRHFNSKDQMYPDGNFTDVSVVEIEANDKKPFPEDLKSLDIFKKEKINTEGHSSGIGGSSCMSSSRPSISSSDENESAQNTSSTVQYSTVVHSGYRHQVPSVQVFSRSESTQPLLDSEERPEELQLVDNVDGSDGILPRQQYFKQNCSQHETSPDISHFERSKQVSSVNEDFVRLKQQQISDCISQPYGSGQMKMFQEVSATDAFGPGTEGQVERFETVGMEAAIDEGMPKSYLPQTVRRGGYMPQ
Procedure: as §1, with “VA). Membranes were then incubated with primary antibodies p-gp130 Y814 (Evseenko lab, AbClonal), p-AKT (cat #4060, Cell Signaling), p-ERK 1/2 (cat #9106, Cell Signaling), p-Y416-SRC (cat #1246F, Novus Biologicals), p-gp130 (cat #1453R, Bioss USA) and p-NFκBp65 (cat #8242, Cell Signaling), and/or YAP1 (cat #4912, Cell Signaling). Histone H3 (cat #9515, Cell Signaling) was used as loading control.” for “VA).”

Cc1ccc(-c2csc(NC(=O)c3ccccn3)n2)cc1 [Peptide R805]
matrix degeneration: levels of cleaved ACAN and COL2 neoepitopes [1]: able to decrease; also recorded: protective effect on OSM-induced cartilage degeneration in vitro
complex formation between gp130 and pSRC (gp130-SRC interaction) (gp130 and pSRC): able to prevent endogenous interaction of SRC with gp130; also recorded: prevents SRC binding to gp130
YAP1 downstream of LIF (YAP1): minimal inhibitory effect
OSM-stimulated activation of gp130 Y814 (protein expression of gp130 pY814) (gp130 pY814): prevents Y814 activation in response to IL-6 cytokines; also recorded: selectively inhibited OSM-stimulated activation of Y814
OSM-stimulated activation of gp130 Y814 (protein expression of gp130 pY814) (gp130 pY814; listed as CX-011): potent inhibitor of OSM-stimulated activation of gp130 Y814
